# In ChEMBL document CHEMBL1132503, “N'-[2-(2-thiophene)ethyl]-N'-[2-(5-bromopyridyl)] thiourea as a potent inhibitor of NNI-resistant and multidrug-resistant human immunodeficiency virus-1” (Bioorg Med Chem Lett, 1999):
# Tests used:
# [1] = biological target: Human immunodeficiency virus type 1 reverse transcriptase (Human immunodeficiency virus 1, UniProt Q72547); assay: (§1) Inhibition of recombinant reverse transcriptase (RT) in cell-free Quan-T-RT assay system
# [2] = biological target: Human immunodeficiency virus type 1 reverse transcriptase (Human immunodeficiency virus 1) (UniProt Q72547); assay: as §1
# [3] = Ability to inhibit the replication of RT-MDR (V106A) strain of HIV-1 p24 antigen production in PBMC; format: functional; conditions: Homo sapiens
# [4] = Cytotoxic concentration was evaluated using microculture tetrazolium assay (MTA); format: functional; conditions: Homo sapiens
# [5] = Ability to inhibit the replication of A17 (Y181C) strain of HIV-1 p24 antigen production in PBMC; format: functional; conditions: Homo sapiens
# [6] = Ability to inhibit the replication of HTLV IIIb strain of HIV-1 p24 antigen production in PBMC; format: functional; conditions: Homo sapiens
# [7] = Ability to inhibit the replication of A17 variant (Y181C,K103N) strain of HIV-1 p24 antigen production in PBMC; format: functional, Homo sapiens
# [8] = Cytotoxicity was evaluated using microculture tetrazolium assay (MTA); format: functional; conditions: Homo sapiens
Compound,IC50 [1] [nM],IC90 [2] [nM],IC50 [3] [nM],CC50 [4] [nM],IC50 [5] [nM],IC50 [6] [nM],IC50 [7] [nM],CC50 [8] [nM]
CN1CCCC1CC/N=C(\S)Nc1ccc(Br)cn1 (stereo unspecified),> 100000,> 100000,,,,,,
S=C(NCCc1c[nH]cn1)Nc1ccc(Br)cn1,,> 100000,,,,,,
S=C(NCCc1ccc2c(c1)OCO2)Nc1ccc(Br)cn1,700,> 100000,,,,,,
S=C(NCCc1ccco1)Nc1ccc(Br)cn1,1200,> 100000,,,,,,
CC(C)Nc1cccnc1N1CCN(C(=O)c2cc3cc(NS(C)(=O)=O)ccc3[nH]2)CC1 [DELAVIRDINE],,,400,3600,50000,9,> 100000,
S=C(NCCc1ccccn1)Nc1ccc(Br)cn1 [TROVIRDINE],600,12000,20,> 100000,500,7,> 100000,
S=C(NCCc1c[nH]c2ccccc12)Nc1ccc(Br)cn1,900,> 100000,,,,,,
CCOCn1c(Cc2ccccc2)c(C(C)C)c(=O)[nH]c1=O [EMIVIRINE],,,270,> 100000,,,,
S=C(NCCc1cccs1)Nc1ccc(Br)cn1,800,15000,4,> 100000,48,30,3300,
S=C(NCCc1cnc[nH]1)Nc1ccc(Br)cn1,> 100000,,,,,,,
S=C(NCCN1CCCC1)Nc1ccc(Br)cn1,4900,> 100000,,,,,,
Fc1ccccc1CC/N=C(\S)Nc1ccc(Br)cn1,,,5,,200,< 1,41000,> 100000
Cc1cn([C@H]2C[C@H](N=[N+]=[N-])[C@@H](CO)O2)c(=O)[nH]c1=O [ZIDOVUDINE],> 100000,,200,> 100000,6,,4,
Cc1ccnc2c1NC(=O)c1cccnc1N2C1CC1 [NEVIRAPINE],,,5000,10500,> 100000,34,> 100000,
S=C(NCCN1CCOCC1)Nc1ccc(Br)cn1,> 100000,> 100000,,,,,,
S=C(NCCN1CCCCC1)Nc1ccc(Br)cn1,600,,> 100000,> 100000,> 100000,1,> 100000,
